From a melting point compilation (Tetko et al.; mined from patent text by program, amines drawn as free bases though some values may be those of a salt)

Row | Structure (SMILES) | melting point [°C]
1 | CC1C(=O)Oc2cc(C3CCCCC3)ccc21 (stereo unspecified) | 87 to 89
2 | Cc1ccccc1-c1nc2c(o1)C(=O)c1ccccc1C2=O | 212
3 | CCCCC1C(C(=O)/C=C/c2ccc(OC)cc2)C(=O)CC(c2ccc(OC)cc2)C1[N+](=O)[O-] (stereo unspecified) | 127 to 129
4 | Nc1ccc(S(=O)(=O)c2cc(-c3ccccc3)nc(N3CCCC3)c2)cc1 | 255 to 258
5 | S=C(NCc1cccc2ccccc12)N1CCc2c([nH]c3ccccc23)C1c1ccc2c(c1)OCO2 (stereo unspecified) | 111 to 113
6 | CCCCc1ncc(/C=C(\Cc2cccs2)C(=O)O)n1Cc1ccccc1Cl | 175 to 177
7 | CCOC(=O)c1cc2c(cn1)[nH]c1ccc(N3CCCC3)cc12 | 259 to 261
8 | Nc1ncc(-c2ccc(F)cc2)cc1[N+](=O)[O-] | 232
9 | Cn1nnnc1Cc1ccc(N)cc1 | 104 to 105
10 | O=C1c2ccccc2-n2cnc(-c3nc(CN4Cc5ccccc5C4)no3)c2[C@@H]2CCN12 | 210 to 213
11 | NC(=O)c1n[nH]c(S(=O)(=O)c2ccccc2)n1 | 150 to 153
12 | CSC(=S)NN=Cc1nc[nH]c1C | 180
13 | Cc1nc(NC(=O)c2cnn3c(C(F)(F)F)cc(-c4ccc(C(F)(F)F)cc4)nc23)sc1S(=O)(=O)N(C)CCO | 266
14 | Cc1c(Nc2c(C#N)cncc2-c2coc(CN3CCN(C)CC3)c2)ccc2[nH]ccc12 | 129
15 | Cc1[nH]c(=O)n(C2CCCCC2)c1-c1ccc(OCc2ccccc2)cc1 | 262
16 | CCn1c(=O)n(-c2ccc(Oc3nc4ccccc4n3C)cc2)c2ncc(Cl)cc21 | 208 to 210
17 | CC(C)c1cccc(C(C)C)c1OC(=O)c1ccccc1 | 80 to 81
18 | O=C(OCC1(c2ccccc2)CC1)c1cccc2nnsc12 | 55 to 57
19 | OC[C@@H]1Cc2ccccc2CN1C(=S)Nc1cccc2cnccc12 | 190
20 | COC(=O)N1CCC(=O)C(C2(NO)OCCO2)CC1 (stereo unspecified) | 152 to 154
21 | O=C(CBr)c1ccc(Cl)c(S(=O)(=O)Nc2ccccc2)c1 | 154
22 | CC1CCC(=NNc2ccccc2)c2ncc(C(=O)NN)c(=O)n21 (stereo unspecified) | 205 to 207
23 | Oc1cnc2cc(C(F)(F)F)ccc2n1 | 260
24 | CC(C)(C)c1ccc(CN(O)Cc2ccc(C(C)(C)C)cc2)cc1 | 108 to 110
25 | CC1CCN(CCCCC(=O)c2ccc3c(c2)Cc2cc(C(=O)CCCCN4CCC(C)CC4)ccc2-3)CC1 | 143 to 144
26 | COc1cc2c(cc1Cl)C(O)Cc1ccccc1S2 (stereo unspecified) | 130 to 132

Row | Structure (SMILES) | melting point [°C]
27 | COc1cccc([C@H]2O[C@H](CC(=O)NCCc3occc3C(=O)O)C(=O)N(CC(C)(C)CO)c3ccc(Cl)cc32)c1OC | 126 to 129
28 | CS(=O)c1ccc2nc3sc(C(=O)O)cn3c(=O)c2c1 (stereo unspecified) | 243 to 244
29 | CC(=O)Nc1ccc(C(=O)CBr)cc1 | 192
30 | CCCCC[C@@H](CNC(=O)Nc1c(OCC)ccc2c1CCCC2)c1cccc2c1OCO2 | 81.5 to 82.5
31 | CCn1nc(C(F)(F)F)c(C(=O)O)c1Cl | 164 to 166
32 | COC(=O)c1cccc(S(=O)(=O)Cl)c1C | 46.5 to 50
33 | O=C(O)c1ccccc1Oc1ccc(C(F)(F)F)cc1NS(=O)(=O)c1ccc(F)cc1 | 159 to 160
34 | CC(C)NC(=S)Nc1nc2ccc(OC(F)(F)F)cc2s1 | 242
35 | O=C(c1cccnc1)C(O)c1ccccc1Br (stereo unspecified) | 105 to 108
36 | CC1=Nc2ccc(-c3sc(C#N)cc3C)cc2C2(CCCC2)O1 | 58 to 60
37 | CCCCOc1ccccc1-c1ncc(-c2nnn[nH]2)c(=O)[nH]1 | 244 to 247
38 | CC(C(=O)OCC(c1cccc(C(F)(F)F)c1)N1CCNCC1)c1ccc2c(c1)CC(C(C)C)C2 (stereo unspecified) | 56 to 58
39 | Cc1ccc(-c2nc(-c3ccc(O)cc3O)nc(-c3ccc(O)cc3O)n2)c(C)c1 | 204 to 207
40 | CCOP(=O)(OCC)C(C)(C)NC(=O)c1cccc([N+](=O)[O-])c1 | 95 to 96
41 | Cc1cc(I)ccc1Nc1c(-c2nnc(N)o2)cc2c(ncn2C)c1F | 258 to 260
42 | CCOc1cc(N(Cc2cncnc2)c2ccc(C(=O)O)cc2)ccc1OC(F)F | 165 to 166
43 | CCOC(=O)c1ncn2c1CN=C(NCC(OC)OC)c1ccccc1-2 | 121 to 122
44 | CC1=C(c2ccc(O)cc2)C(=O)c2cc(O)c(O)cc21 | 226 to 229
45 | CN1CCC2(C)c3cc(C(=O)C(=O)OCc4ccccc4)ccc3N(C)C12 (stereo unspecified) | 53 to 57
46 | CC(C)OC(=O)c1cc(-n2c(=O)cc(C(F)(F)F)[nH]c2=O)c(F)cc1Cl | 127 to 129
47 | Cc1cccc(-c2n[nH]cc2-c2ccc(F)c(-c3cn4c(n3)S(=O)(=O)CC4)c2)n1 | 134 to 138
48 | c1cnc(N2CCN(Cc3ccc4c(c3)SCO4)CC2)nc1 | 90 to 91
49 | Nc1cc2c(cc1[N+](=O)[O-])OCO2 | 199 to 201
50 | CCOc1cc2c(cc1OCC)[C@@H]1CCCC[C@@H]1N=C2c1ccc(O)cc1 (racemic) | 232 to 234
51 | CCC(CC)Nc1cc(C)nc(Oc2c(C)cc(C)cc2C)c1C(=O)OC | 98 to 102
52 | O=C(O)Cc1c(-c2ccc(Cl)cc2)nn(-c2ccccc2)c1-c1ccc(Cl)cc1 | 204 to 206

Row | Structure (SMILES) | melting point [°C]
53 | CCNc1cccnc1N1CCN(C(=O)c2ccc(C(=O)OC)cc2)CC1 | 96 to 97
54 | CC(=O)N1C=C(c2ccccc2)NC(=O)C1C(C)C (racemic) | 182 to 185
55 | CONS(=O)(=O)c1cccc(C(F)(F)F)c1 | 78 to 81
56 | CCCCCCCC(=O)N(C)Cc1cccc(-c2ccc(C=CC(=O)O)cc2)c1 | 124 to 125
57 | O=c1[nH]c(C2(F)CC2)nc2c1cnn2-c1ncc(C(F)(F)F)cc1Cl | 211
58 | CCn1c(=O)n(CCC(C)C(C)=O)c(=O)c2c1ncn2CCOC (stereo unspecified) | 83 to 84
59 | CN1CCC(N2C(=O)CN=C(c3ccccc3)c3ccccc32)CC1 | 158 to 159
60 | Cc1cc(C(O)(c2ccccc2)c2ccccc2)on1 | 116 to 118
61 | Cn1cc(Br)cc(Nc2ccn(CCO[Si](C)(C)C(C)(C)C)n2)c1=O | 96 to 97
62 | COc1ccccc1CNC(=O)c1c(-c2ccc(C)cc2)c2cccnc2c(=O)n1CCCCO | 205 to 206
63 | CC(=O)NC1CCC(Nc2ncc3c(N)cc(=O)n(CCCO)c3n2)CC1 (stereo unspecified) | > 300
64 | Cc1nc(N2CCc3ccccc3CC2)c(C#N)c(=O)n1CCO | 164 to 168
65 | CCCCCCCCCCCCCCCCCC(=O)NCC(C)(C)NCC(O)c1cc(Cl)c(N)c(Cl)c1 (stereo unspecified) | 74 to 76
66 | CC(C)(C)OC(=O)N1CC(CCl)c2c1cc([N+](=O)[O-])c1ccccc21 (stereo unspecified) | 168 to 169
67 | COc1cc2c(cc1O)CCN(Cc1ccccc1OC)C2 | 128 to 129
68 | CCOc1ccc(Nc2cccc3ccccc23)cc1 | 73 to 75
69 | C=C(c1ccccc1N1CCCCC1)C(C(N)=O)c1ccc(C(=O)O)cc1 (stereo unspecified) | 158 to 160
70 | CC(C)(C)N[C@@H]1Cc2c(O)cccc2C[C@H]1O (relative stereo) | 123 to 127
71 | O=C(O)c1cccc2[nH]nnc12 | 250 to 252
72 | CCOc1ccc2c(c1)C(=O)N(CCCCBr)S2(=O)=O | 105 to 108
73 | CCCCc1nc(C(O)C(C)C)c(C(N)=O)n1Cc1ccc(-c2ccccc2C(=O)O)cc1 (stereo unspecified) | > 131
74 | S=c1[nH]ccc2ccsc12 | 187 to 189
75 | CC(=O)c1ccc2c(c1)C(=O)c1ccccc1CN2 | 206 to 207
76 | CC(=C1SC(=O)NC1=O)c1ccc(S(=O)(=O)CCc2ccccc2)cc1 | 201 to 202
77 | C#Cc1ccc(C#Cc2ccncc2)s1 | 134 to 136
78 | CC(C)(C)CC(C)(C)Nc1nc(NC(C)(C)C(C)(C)C)nc(N2CC3CCC(CC3)C2)n1 | 98 to 102

Row | Structure (SMILES) | melting point [°C]
79 | Cc1oc(-c2cccs2)nc1CCOc1ccc(N)cn1 | 120 to 122
80 | CCCC(=O)C(=O)C(CC1CCCCC1)NC(=O)C(CC(C)C)NC(=O)C(Cc1ccccc1)NC(=O)C1CCCC1 (stereo unspecified) | 152 to 161
81 | Cc1ccc(C(=O)O)c(-c2ccc(Cl)c(C(=O)NCC34CC5CC(CC(C5)C3)C4)c2)n1 | 209 to 211
82 | CCOC(=O)COc1ccc(CC2SC(=O)NC2=O)cc1 (stereo unspecified) | 105 to 106
83 | CCCCCC(=O)c1c(CN(CC)CC)nc2cc(OC)c(OC)cc2c1-c1ccc(OC)c(OC)c1 | 104 to 106
84 | COC(=O)CNc1ccccc1C#N | 70 to 78
85 | Cc1nnc2n1-c1sc(Cl)cc1C(c1ccccc1C(F)(F)F)=NC2 | 193 to 195
86 | CCOC(=O)C(Oc1cc(N)c(Cl)cc1C(=O)NCCN(CC)CC)c1ccccc1 (stereo unspecified) | 84 to 87
87 | Cc1cc(CON2C(=O)c3ccccc3C2=O)on1 | 129 to 131
88 | CON=C(C(=O)O)c1cnsn1 | 99 to 100
89 | CCOc1ccc(C(=O)OC)c(Cl)n1 | 46 to 48
90 | C=CCOC(=O)NC(=O)C(C)(c1ccccc1)c1ccccc1 | 89
91 | Oc1ccccc1-n1cnc(-c2ccccc2)n1 | 148 to 154
92 | O=C(Nc1nccs1)c1cn(CC2CCCC2)c2cc(Cl)ccc12 | 117 to 119
93 | CNC(=O)CCc1cn(Cc2ccc(C(=O)NS(=O)(=O)c3ccccc3C)cc2OC)c2cc(C(=O)NCC3CCCC3)ccc12 | 211 to 212
94 | COc1cc2ncc(O[C@H]3CC[C@@H](OC(C)=O)CC3)nc2cc1OC | 150 to 152
95 | CC(C)(C)OC(=O)C[C@H](NC(=O)CCCC(=O)Nc1ccc(C#N)cc1)C(=O)N[C@@H](Cc1ccccc1)C(=O)OC(C)(C)C | 64 to 66
96 | Cc1ccc(-n2c(=O)nc(N(C)C)n(C)c2=O)cc1C | 189 to 191
97 | CCCN(c1ccncc1)n1cc(C(C)=O)c2ccccc21 | 81 to 86
98 | Cc1cc(-c2nc3ccccc3c(=O)n2-c2ccc(C(C)C)cc2)cc(C)c1OCCO | 160 to 162
99 | Cc1ccc(C(=O)NC(NC(=S)Nc2cccc([N+](=O)[O-])c2)C(C)(C)C)cc1 (stereo unspecified) | 181 to 182
100 | CCOC(=O)C(C(=O)OCC)C(=O)C1CCC2C3CCC4CC(O)CCC4(C)C3C(=O)CC12C (stereo unspecified) | 116 to 117
101 | COc1ccc(COc2ccccc2-c2cccc(N)c2)cc1 | 68 to 70
